TGI and GI50 data for six compounds are collected here from PubChem BioAssay (NCI).

Among the test systems are 786-0 renal; CAKI-1 renal; COLO 205 colon; HCC-2998 colon; HCT-116 colon; HS 578T breast; HT29 colon; LOX IMVI melanoma; MDA-MB-435; NCI-H460 lung; OVCAR-4 ovarian; PC-3 prostate; RPMI-8226 leukemia; SF-295 CNS; SK-MEL-2 melanoma; SNB-75 CNS; SW-620 colon.
What all share (assay): inhibition of tumour cell growth, NCI panel, 48 h

Each structure is given as a SMILES string.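 Grown in 96-well plates, cells were treated for 48 hours with each compound at five concentrations. Insufficient inhibition: endpoint recorded as highest concentration tested. Abbreviation: GI50, concentration required for 50% inhibition of growth. TGI denotes the concentration required for complete inhibition of growth.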

Turning to `O=C(O)c1ccccc1C(=O)OCC1CCCN2CCCCC12` (stereo not drawn), the TGI with 786-0 renal, in the assay with CAKI-1 renal, in the assay with COLO 205 colon, in the assay on HCC-2998 colon, in the assay with HCT-116 colon and in the assay on HS 578T breast was over 100 µM throughout. The TGI with HT29 colon, in the assay with LOX IMVI melanoma, in the assay with MDA-MB-435, in the assay on NCI-H460 lung, in the assay with OVCAR-4 ovarian and in the assay with PC-3 prostate was over 100 µM throughout. The TGI with RPMI-8226 leukemia, in the assay on SF-295 CNS, in the assay with SK-MEL-2 melanoma, with SNB-75 CNS and in the assay with SW-620 colon was over 100 µM each time.
Turning to `CC1=CC[C@@]2(C)[C@@H]([C@@H]1C)[C@H]1CC[C@@H]3[C@@]4(C)CC[C@H](O)C(C)(C)[C@@H]4CC[C@@]3(C)[C@]1(C)C[C@@H]2O`, the TGI in the assay with 786-0 renal is 42.2 µM; in the assay on CAKI-1 renal it was over 83.2 µM; in the assay with COLO 205 colon, 32.1 µM; with HCC-2998 colon, 37.9 µM; in the assay with HCT-116 colon it was over 58 µM; with HS 578T breast, over 74 µM. Moreover, the TGI in the assay on HT29 colon was 46 µM; with LOX IMVI melanoma it was 16 µM; with MDA-MB-435 it was 70.2 µM; with NCI-H460 lung, over 67.7 µM; in the assay on OVCAR-4 ovarian it was over 82.2 µM; with PC-3 prostate, 40.6 µM. Moreover, the TGI in the assay on RPMI-8226 leukemia was over 100 µM; in the assay with SF-295 CNS it was 43.4 µM; in the assay with SK-MEL-2 melanoma it was over 59 µM; in the assay with SNB-75 CNS it was over 100 µM; with SW-620 colon, 98.6 µM.
Turning to `C/C(=C\c1csc(C)n1)[C@@H]1C[C@@H]2O[C@]2(C)CCC[C@H](C)[C@H](O)[C@@H](C)C(=O)C(C)(C)[C@@H](O)CC(=O)O1` (tested in a mixture with another compound), the TGI with 786-0 renal is over 1 µM; in the assay with CAKI-1 renal, over 1 µM; in the assay with COLO 205 colon, 0.119 µM; with HCT-116 colon, over 0.183 µM; with HS 578T breast, over 1 µM; in the assay with HT29 colon, over 0.378 µM. Also, the TGI with LOX IMVI melanoma is over 1 µM; in the assay on MDA-MB-435, 0.00284 µM; in the assay on NCI-H460 lung, over 1 µM; with OVCAR-4 ovarian, over 1 µM; with PC-3 prostate, over 1 µM; in the assay on RPMI-8226 leukemia, over 0.172 µM. Besides, the TGI is 0.0369 µM in the assay on SF-295 CNS, over 0.464 µM in the assay on SK-MEL-2 melanoma and over 1 µM in the assay on SW-620 colon. The GI50 with HCC-2998 colon is 0.00305 µM; in the assay with HT29 colon it was 0.000721 µM; in the assay with SNB-75 CNS it was 0.00551 µM.
Consider `COc1ccc(OC)c2sc(N3C(=O)/C(=C/c4ccccc4S)N=C3c3ccccc3)nc12`, for which the TGI in the assay on 786-0 renal was over 100 µM; in the assay with CAKI-1 renal, over 100 µM; with COLO 205 colon, over 100 µM; in the assay with HCC-2998 colon, over 100 µM; in the assay with HCT-116 colon it was 78.2 µM; in the assay on HS 578T breast, over 100 µM. The TGI in the assay on HT29 colon is over 100 µM; with LOX IMVI melanoma, 60.4 µM; in the assay on MDA-MB-435, 52 µM; in the assay on NCI-H460 lung it was over 100 µM; with OVCAR-4 ovarian, over 100 µM; in the assay on PC-3 prostate, 56.5 µM. Also, the TGI is 58.4 µM with RPMI-8226 leukemia; over 100 µM with SF-295 CNS; 78.8 µM in the assay on SK-MEL-2 melanoma; 57.2 µM in the assay on SNB-75 CNS; over 100 µM with SW-620 colon.
In the case of `CCN(CC)CCN1CCN=c2c3cc(OC)ccc3n3cnc4ccc1c2c43`, the TGI with 786-0 renal stood at 1.72 µM; in the assay with CAKI-1 renal, 2.23 µM; in the assay with COLO 205 colon, 2.6 µM; with HCC-2998 colon, 2.13 µM; with HCT-116 colon, 2.84 µM; in the assay on HS 578T breast it was 4.71 µM. Moreover, the TGI in the assay on HT29 colon was 1.81 µM; in the assay on LOX IMVI melanoma, 1.07 µM; in the assay with MDA-MB-435 it was 1.92 µM; in the assay on NCI-H460 lung, 0.724 µM; in the assay with OVCAR-4 ovarian it was 1.26 µM; with PC-3 prostate it was 1.63 µM. For the same compound, the TGI in the assay with RPMI-8226 leukemia was 1.3 µM; with SF-295 CNS, 2.32 µM; with SK-MEL-2 melanoma it was 2.18 µM; in the assay on SNB-75 CNS it was 2.27 µM; with SW-620 colon, 1.82 µM.
For `Cc1cc2c(cc1Cl)SC(NNC(=O)c1ccncc1)=NS2(=O)=O`, the TGI with 786-0 renal, in the assay on CAKI-1 renal, in the assay on COLO 205 colon, in the assay with HCC-2998 colon, with HCT-116 colon and in the assay with HS 578T breast was over 10 µM throughout. In addition, the TGI in the assay with HT29 colon, with LOX IMVI melanoma, in the assay with MDA-MB-435, in the assay on NCI-H460 lung, in the assay on OVCAR-4 ovarian and in the assay on PC-3 prostate was over 10 µM each time. For the same compound, the TGI with RPMI-8226 leukemia, with SF-295 CNS, in the assay with SK-MEL-2 melanoma, in the assay with SNB-75 CNS and in the assay with SW-620 colon was over 10 µM throughout.
